Assay results taken from PubChem BioAssay AID1963978 (Molecular Pharmacology Branch, DTP, NCI, 2024).

System: 616215-338-R-J1-PDC spheroids with HUVEC/MSC, viability
Test: Anticancer human tumor 616215-338-R-J1-PDC patient-derived colon adenocarcinoma cell line growth inhibition [PI3K]
Details: for IC50: curve of first compound; for viability, T/C: stronger effect = lower value; active = viability on the fitted dose curve at most 10% of control; inactive = the rest
How it was run: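 Tumor cells were combined with HUVEC and MSCs into spheroids, then dosed with PI3K-inhibitor combinations over half-log ranges capped near clinical Cmax or 10 microM.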

[1] = second compound 0.0316 µM, first compound 0.0316 µM
[2] = second compound 0.0316 µM, first compound 0.1 µM
[3] = second compound 0.0316 µM, first compound 0.316 µM
[4] = second compound 0.0316 µM, first compound 1 µM
[5] = second compound 0.0316 µM, first compound 3.16 µM
[6] = second compound 0.0316 µM, first compound 10 µM
[7] = second compound 0.1 µM, first compound 0.0316 µM
[8] = second compound 0.1 µM, first compound 0.1 µM
[9] = second compound 0.1 µM, first compound 0.316 µM
[10] = second compound 0.1 µM, first compound 1 µM
[11] = second compound 0.1 µM, first compound 3.16 µM
[12] = second compound 0.1 µM, first compound 10 µM
[13] = second compound 0.316 µM, first compound 0.0316 µM
[14] = second compound 0.316 µM, first compound 0.1 µM
[15] = second compound 0.316 µM, first compound 0.316 µM
[16] = second compound 0.316 µM, first compound 1 µM
[17] = second compound 0.316 µM, first compound 3.16 µM
[18] = second compound 0.316 µM, first compound 10 µM
[19] = second compound 1 µM, first compound 0.0316 µM
[20] = second compound 1 µM, first compound 0.1 µM
[21] = second compound 1 µM, first compound 0.316 µM
[22] = second compound 1 µM, first compound 1 µM
[23] = second compound 1 µM, first compound 3.16 µM
[24] = second compound 1 µM, first compound 10 µM
[25] = second compound 3.16 µM, first compound 0.0316 µM
[26] = second compound 3.16 µM, first compound 0.1 µM
[27] = second compound 3.16 µM, first compound 0.316 µM
[28] = second compound 3.16 µM, first compound 1 µM
[29] = second compound 3.16 µM, first compound 3.16 µM
[30] = second compound 3.16 µM, first compound 10 µM
[31] = second compound 10 µM, first compound 0.0316 µM
[32] = second compound 10 µM, first compound 0.1 µM
[33] = second compound 10 µM, first compound 0.316 µM
[34] = second compound 10 µM, first compound 1 µM
[35] = second compound 10 µM, first compound 3.16 µM
[36] = second compound 10 µM, first compound 10 µM
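Note: spheroids exposed to agents for seven days before the viability read.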

CC1(C)CCC(CN2CCN(c3ccc(C(=O)NS(=O)(=O)c4ccc(NCC5CCOCC5)c([N+](=O)[O-])c4)c(Oc4cnc5[nH]ccc5c4)c3)CC2)=C(c2ccc(Cl)cc2)C1 + Cc1nc(NC(=O)N2CCCC2C(N)=O)sc1-c1ccnc(C(C)(C)C(F)(F)F)c1
5.11 µM: IC50 (second compound 1 µM)
5 µM: IC50 (second compound 0.1 µM)
4.47 µM: IC50 (second compound 10 µM)
inactive: viability, T/C [1] 95.6% | viability, T/C [2] 98.9% | viability, T/C [3] 108% | viability, T/C [4] 102% | viability, T/C [5] 86.4% | viability, T/C [7] 97.4% | viability, T/C [8] 92.3% | viability, T/C [9] 95.8% | viability, T/C [10] 104% | viability, T/C [11] 81.5% | viability, T/C [13] 98.5% | viability, T/C [14] 97.1% | viability, T/C [15] 90.5% | viability, T/C [16] 97.7% | viability, T/C [17] 81% | viability, T/C [19] 103% | viability, T/C [20] 92.3% | viability, T/C [21] 102% | viability, T/C [22] 93% | viability, T/C [23] 85.3% | viability, T/C [25] 95.6% | viability, T/C [26] 99.4% | viability, T/C [27] 101% | viability, T/C [28] 97.9% | viability, T/C [29] 91.9% | viability, T/C [31] 92.8% | viability, T/C [32] 99.9% | viability, T/C [33] 94.8% | viability, T/C [34] 87.1% | viability, T/C [35] 72.4%
active: viability, T/C [6] 2.58% | viability, T/C [12] 1.97% | viability, T/C [18] 2.29% | viability, T/C [24] 0.61% | viability, T/C [30] 0.6% | viability, T/C [36] 0.39%
5.22 µM: IC50 (second compound 0.0316 µM)
5.37 µM: IC50 (second compound 3.16 µM)
4.98 µM: IC50 (second compound 0.316 µM)

C[C@@H](NC(=O)c1ncnc(N)c1Cl)c1ncc(C(=O)Nc2cc(C(F)(F)F)c(Cl)cn2)s1 + Cc1nc(NC(=O)N2CCCC2C(N)=O)sc1-c1ccnc(C(C)(C)C(F)(F)F)c1
inactive: viability, T/C [1] 91.9% | viability, T/C [2] 101% | viability, T/C [3] 94.3% | viability, T/C [4] 105% | viability, T/C [5] 112% | viability, T/C [6] 89.2% | viability, T/C [7] 111% | viability, T/C [8] 99.1% | viability, T/C [9] 101% | viability, T/C [10] 115% | viability, T/C [11] 93.7% | viability, T/C [12] 77.7% | viability, T/C [13] 107% | viability, T/C [14] 110% | viability, T/C [15] 106% | viability, T/C [16] 119% | viability, T/C [17] 109% | viability, T/C [18] 77.2% | viability, T/C [19] 112% | viability, T/C [20] 112% | viability, T/C [21] 107% | viability, T/C [22] 108% | viability, T/C [23] 108% | viability, T/C [24] 62.3% | viability, T/C [25] 102% | viability, T/C [26] 112% | viability, T/C [27] 103% | viability, T/C [28] 98.9% | viability, T/C [29] 81.1% | viability, T/C [30] 53.1% | viability, T/C [31] 97.5% | viability, T/C [32] 107% | viability, T/C [33] 88.9% | viability, T/C [34] 104% | viability, T/C [35] 68.3% | viability, T/C [36] 19.2%
4.85 µM: IC50 (second compound 10 µM)
> 10 µM: IC50 (second compound 0.0316 µM) | IC50 (second compound 0.1 µM) | IC50 (second compound 0.316 µM) | IC50 (second compound 1 µM) | IC50 (second compound 3.16 µM)

Cn1ncnc1[C@H]1c2n[nH]c(=O)c3cc(F)cc(c23)N[C@@H]1c1ccc(F)cc1 + Cc1nc(NC(=O)N2CCCC2C(N)=O)sc1-c1ccnc(C(C)(C)C(F)(F)F)c1
> 0.1 µM: IC50 (second compound 0.0316 µM) | IC50 (second compound 0.1 µM) | IC50 (second compound 0.316 µM) | IC50 (second compound 1 µM) | IC50 (second compound 3.16 µM) | IC50 (second compound 10 µM)
inactive: viability, T/C (second compound 0.0316 µM, first compound 0.000316 µM) 95.2% | viability, T/C (second compound 0.0316 µM, first compound 0.001 µM) 88.9% | viability, T/C (second compound 0.0316 µM, first compound 0.00316 µM) 112% | viability, T/C (second compound 0.0316 µM, first compound 0.01 µM) 89.3% | viability, T/C [1] 109% | viability, T/C [2] 99.1% | viability, T/C (second compound 0.1 µM, first compound 0.000316 µM) 101% | viability, T/C (second compound 0.1 µM, first compound 0.001 µM) 98.7% | viability, T/C (second compound 0.1 µM, first compound 0.00316 µM) 97.8% | viability, T/C (second compound 0.1 µM, first compound 0.01 µM) 97.2% | viability, T/C [7] 104% | viability, T/C [8] 109% | viability, T/C (second compound 0.316 µM, first compound 0.000316 µM) 92% | viability, T/C (second compound 0.316 µM, first compound 0.001 µM) 103% | viability, T/C (second compound 0.316 µM, first compound 0.00316 µM) 89.6% | viability, T/C (second compound 0.316 µM, first compound 0.01 µM) 104% | viability, T/C [13] 99.9% | viability, T/C [14] 90% | viability, T/C (second compound 1 µM, first compound 0.000316 µM) 107% | viability, T/C (second compound 1 µM, first compound 0.001 µM) 103% | viability, T/C (second compound 1 µM, first compound 0.00316 µM) 94.5% | viability, T/C (second compound 1 µM, first compound 0.01 µM) 93.4% | viability, T/C [19] 90.2% | viability, T/C [20] 93.5% | viability, T/C (second compound 3.16 µM, first compound 0.000316 µM) 103% | viability, T/C (second compound 3.16 µM, first compound 0.001 µM) 94.6% | viability, T/C (second compound 3.16 µM, first compound 0.00316 µM) 98.5% | viability, T/C (second compound 3.16 µM, first compound 0.01 µM) 93% | viability, T/C [25] 92.5% | viability, T/C [26] 87.7% | viability, T/C (second compound 10 µM, first compound 0.000316 µM) 107% | viability, T/C (second compound 10 µM, first compound 0.001 µM) 91.3% | viability, T/C (second compound 10 µM, first compound 0.00316 µM) 85.7% | viability, T/C (second compound 10 µM, first compound 0.01 µM) 81.3% | viability, T/C [31] 81.4% | viability, T/C [32] 80.4%
